Tests used:
[1] = tested on: C3H/HeOuJ mice; test: T maze spontaneous alternation spatial memory performance test; assay type: in vivo; conditions: CMA sensitized mice
Experimental: (§1) Pathogen-free, male C3H/HeOuJ mice (4 weeks old, Charles River Laboratories) mice were bred and raised on a cow's milk protein-free diet (Special Diet Services, Witham, UK) and housed on a 12 h light-dark cycle with access to food and water ad libitum. All animal procedures were conducted in accordance with the guidelines of the Dutch Committee of Animal Experiments. The mice were sensitized orally with 0.5 mL homogenized whey protein (40 mg/mL PBS) and cholera toxin (CT, 20 μg/mL PBS, Quadratech Diagnostics) as an adjuvant; sham-sensitized mice received CT alone. Mice were orally boosted once a week for 5 consecutive weeks. One week after the last sensitization, mice were challenged orally with 0.5 mL whey (100 mg/mL PBS). The mice were fed a control diet, or a diet supplemented with glutamine (5 wt %). At the end, the mice were subjected to social interaction and spatial memory tests. Cow's milk allergy is associated with disturbed social interaction and impaired spatial memory, and thus suited to study the effects of dietary intervention there. […] The percentage of alternation (number of turns in each goal arm) and total trial duration are recorded. This test is used to quantify cognitive deficits in transgenic strains of mice and evaluate novel chemical entities for their effects on cognition. […]

[2] = tested on: C3H/HeOuJ mice; test: Social interaction test in cow's milk allergy model mice and unsensitized mice; assay type: in vivo
Experimental: as §1, with “By using video tracking software (EthoVision 3.1.16, Noldus), an interaction zone around the cage was digitally determined. Time spent in the interaction zone as well as frequency” for “The percentage”, “entering the interaction zone over the selected time period was measured.” for “alternation (number of turns in each goal arm) and total trial duration are recorded. This test is used to quantify cognitive deficits in transgenic strains of mice and evaluate novel chemical entities for their effects on cognition.”

NC(=O)CC[C@H](N)C(=O)O [glutamine, L-glutamine]
% Alternation in spatial memory test ([1]; diet supplemented with glutamine (5 wt %), mean, s.e.): 66.7 +/− 6.4 (n = 12) % | Reduced alternation in the T-maze test vs control CMA-mice, in words ([1]; diet with supplementation of Gln): markedly improved | Time spent in interaction zone ([2]; CMA sensitized mice, diet supplemented with glutamine (5 wt %), mean +/- s.e.): 117 +/− 20.8 (n = 12) sec | Time spent in the interaction zone ([2]; unsensitized mice fed the Gln diet): 174 ± 19.1 s

From patent US20170042849A1, “COMPOSITION FOR BRAIN IMPROVEMENT” (N.V. Nutricia, priority 2014, published 2017)
